Experimental data published in patent publication EP2697230B1, “COMPOUNDS FOR THE TREATMENT OF HEPATITIS C” (priority 2011, dated 2012).
Like-named read-outs stand apart in the source and are kept apart here.

System: HCV pseudoparticles, genotype 1a HCV E1 and E2 envelope (H77C isolate)
Assay: HCV pseudoparticle infection assay (luciferase reporter, Huh7 cells)
Type: cell-based
[1] = class symbol, HCV pseudoparticles genotype 1a (H77C), luciferase 2 days after infection, read-out: EC50 (nM) 1a (H77C)
[2] = numeric value, HCV pseudoparticles genotype 1a (H77C), luciferase 2 days after infection, read-out: EC50 (nM) 1a (H77C)
[3] = Hepatitis C virus, Huh-7, 48 h, read-out: EC50 (nM) 1a (H77C), class symbol, HCV pseudoparticles genotype 1a (H77C), luciferase 2 days after infection
[4] = Hepatitis C virus, Huh-7, 48 h, read-out: EC50 (nM) 1a (H77C), numeric value, HCV pseudoparticles genotype 1a (H77C), luciferase 2 days after infection

Row | SMILES | EC50 [3] [nM] | further results
1 | O=C1NCCNCCNc2nc(nc(OCC(F)(F)F)n2)Nc2ccc1cc2 [Example 0001] |  | EC50 [1]: 1000 to 5000 nM; EC50 [2]: 4200 nM
2 | O=C1NCCCCCCCCNc2nc(nc(OCC(F)(F)F)n2)Nc2ccc1cc2 [Example 0002] |  | EC50 [1]: 0.1 to 100 nM
3 | O=C1NCCCCCCCCCCNc2nc(nc(OCC(F)(F)F)n2)Nc2ccc1cc2 [Example 0003] |  | EC50 [1]: 100 to 1000 nM; EC50 [2]: 101 nM
4 | O=C1NCCCOCCCCOCCCNc2nc(nc(OCC(F)(F)F)n2)Nc2ccc1cc2 [Example 0004] |  | EC50 [1]: 0.1 to 100 nM; EC50 [2]: 48.4 nM
5 | O=C1NCCCCNC(=O)C2(CC2)Nc2nc(nc(OCC(F)(F)F)n2)Nc2ccc1cc2 [Example 0006] |  | EC50 [1]: 1000 to 5000 nM
6 | O=C1NC2CNCC2C(=O)NCCCCCCOc2ccc(cc2)CNc2nc(nc(OCC(F)(F)F)n2)Nc2ccc1cc2 (centres unmarked) [Example 0007] |  | EC50 [1]: 0.1 to 100 nM; EC50 [2]: 8.31 nM
7 | CCN(CC)CCN1CCNC(=O)c2ccc(cc2)Nc2nc(nc(OCC(F)(F)F)n2)Nc2ccc(cc2)C1=O [Example 0021] | 100 to 1000 | 
8 | CN1CCCNC(=O)c2ccc(cc2)Nc2nc(nc(OCC(F)(F)F)n2)Nc2ccc(cc2)C(=O)NCCC1 [Example 0022] | 100 to 1000 | 
9 | CN(C)CCCN1CCCNC(=O)c2ccc(cc2)Nc2nc(nc(OCC(F)(F)F)n2)Nc2ccc(cc2)C1=O [Example 0023] | 100 to 1000 | 
10 | CN1CCCN(C)CCCN(C)C(=O)c2ccc(cc2)Nc2nc(nc(OCC(F)(F)F)n2)Nc2ccc(cc2)C(=O)N(C)CCC1 [Example 0024] | 1000 to 5000 | EC50 [4]: 16300 nM
11 | O=C1NCCCCCCNC(=O)c2ccc(cc2)Nc2nc(nc(OCC(F)(F)F)n2)NCc2ccc1cc2 [Example 0032] | 100 to 1000 | 
12 | O=C1NCCCCNC(=O)c2ccc(cc2)Nc2nc(nc(OCC(F)(F)F)n2)NCc2ccc1cc2 [Example 0033] | 100 to 1000 | 
13 | CCN(CC)CCN1CCNC(=O)c2ccc(cc2)CNc2nc(nc(OCC(F)(F)F)n2)Nc2ccc(cc2)C1=O [Example 0035] | 1000 to 5000 | 
14 | O=C1NCCCN2CCN(CCCNC(=O)c3ccc(cc3)Nc3nc(nc(OCC(F)(F)F)n3)NCc3ccc1cc3)CC2 [Example 0039] | 100 to 1000 | 
15 | CN1CCCN(C)CCCN(C)C(=O)c2ccc(cc2)Nc2nc(nc(OCC(F)(F)F)n2)NCc2ccc(cc2)C(=O)N(C)CCC1 [Example 0041] | 1000 to 5000 | EC50 [4]: 21600 nM
16 | CN1CCNC(=O)c2ccc(cc2)CNc2nc(nc(OCC(F)(F)F)n2)Nc2ccc(cc2)C(=O)NCC1 [Example 0042] | 100 to 1000 | 

Row | SMILES | EC50 [3] [nM] | further results
17 | O=C1NCc2ccc(cc2)CNc2nc(nc(OCC(F)(F)F)n2)Nc2ccc(cc2)CNC(=O)Nc2cccc(c2)N1 [Example 0051] | 100 to 1000 | 
18 | O=C1NCc2ccc(cc2)Nc2nc(nc(OCC(F)(F)F)n2)NCc2cccc(c2)CNC(=O)Nc2cccc(c2)N1 [Example 0052] | 100 to 1000 | 
19 | O=C1NCCCCNC(=O)NCc2ccc(cc2)Nc2nc(nc(OCC(F)(F)F)n2)NCc2ccc(cc2)CN1 [Example 0053] | 100 to 1000 | 
20 | O=C1NCc2ccc(cc2)Nc2nc(nc(OCC(F)(F)F)n2)NCc2cccc(c2)CNC(=O)NC2CCC(CC2)CC2CCC(CC2)N1 [Example 0054] | 1000 to 5000 | EC50 [4]: 5210 nM
21 | O=C1NCCCCCCNC(=O)NCc2ccc(cc2)Nc2nc(nc(OCC(F)(F)F)n2)NCc2ccc(cc2)CN1 [Example 0055] | 100 to 1000 | 
22 | O=C1NCCCCCCNC(=O)NCc2cccc(c2)CNc2nc(nc(OCC(F)(F)F)n2)Nc2ccc(cc2)CN1 [Example 0056] | 100 to 1000 | 
23 | CC1(C)NC(=O)NCc2ccc(cc2)CNc2nc(nc(OCC(F)(F)F)n2)Nc2ccc(cc2)CNC(=O)NC(C)(C)c2cccc1c2 [Example 0057] | 100 to 1000 | 
24 | CC1(C)NC(=O)NCc2ccc(cc2)Nc2nc(nc(OCC(F)(F)F)n2)NCc2cccc(c2)CNC(=O)NC(C)(C)c2cccc1c2 [Example 0058] | 100 to 1000 | 
25 | O=C1NCc2ccc(cc2)Nc2nc(nc(OCC(F)(F)F)n2)NCc2cccc(c2)CNC(=O)c2ccccc21 [Example 0059] | 0.1 to 100 | 
26 | O=C1NCc2ccc(cc2)Nc2nc(nc(OCC(F)(F)F)n2)NCc2cccc(c2)CNC(=O)c2ccc1cc2 [Example 0060] | 100 to 1000 | 
27 | O=C1CCCC(=O)NCc2ccc(cc2)Nc2nc(nc(OCC(F)(F)F)n2)NCc2ccc(cc2)CN1 [Example 0061] | 100 to 1000 | 
28 | O=C1CCCC(=O)NCc2cccc(c2)CNc2nc(nc(OCC(F)(F)F)n2)Nc2ccc(cc2)CN1 [Example 0062] | 100 to 1000 | 
29 | O=C1CCCCCCC(=O)NCc2ccc(cc2)Nc2nc(nc(OCC(F)(F)F)n2)NCc2ccc(cc2)CN1 [Example 0063] | 100 to 1000 | 
30 | O=C1CCCCCCCCC(=O)NCc2cccc(c2)CNc2nc(nc(OCC(F)(F)F)n2)Nc2ccc(cc2)CN1 [Example 0065] | 100 to 1000 | 
31 | O=C1NCc2ccc(cc2)CNc2nc(nc(OCC(F)(F)F)n2)Nc2ccc(cc2)CNC(=O)OCCOCCOCCO1 [Example 0067] | 100 to 1000 | 
